This is an account of results in patent US7803829B2, “Use of a kinase inhibitor for the treatment of particular resistant tumors” (Nerviano Medical Sciences S.r.l., priority 2006, dated 2010).

Holding throughout (experiment): Indolinone probe titration (fluorescence), probe of 3.2
Common to all, as to format: binding
Conditions in all cases: Table 4

Assay [1] deals with T1, Wild-type ABL 0P (unphosphorylated) kinase domain (Homo sapiens, UniProt P00519).
T1 construct: ABL kinase domain (corresponding to residues 229-512); GST (N, cleaved yes); PreScission cleavage site (N, cleaved yes); made in house; host or cells: High5 insect cells (baculovirus)
T1 sequence (P00519 229-512): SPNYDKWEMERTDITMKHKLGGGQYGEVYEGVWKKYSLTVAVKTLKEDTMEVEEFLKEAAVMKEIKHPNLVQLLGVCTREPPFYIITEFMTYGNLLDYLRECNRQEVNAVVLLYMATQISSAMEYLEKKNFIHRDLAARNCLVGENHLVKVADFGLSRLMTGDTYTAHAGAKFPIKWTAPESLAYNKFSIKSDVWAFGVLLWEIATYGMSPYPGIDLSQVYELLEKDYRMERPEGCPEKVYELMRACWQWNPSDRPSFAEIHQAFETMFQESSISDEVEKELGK
As for the experimental part:
(§1) The titration experiment was performed as follows: 10 nM ABL kinase domains (wild-type or T315I mutant), indolinone concentration from 3 μM to 0, with dilution steps 1:1.5 in 50 mM TrisHCl, pH 7.5, 150 mM NaCl, 5 mM MgCl2, 1 mM MnCl2, 1 mM DTT, 1% DMSO, 3 μM NaaVO4(buffer 1).

In assay [2] the target is T2, T315I ABL mutant kinase domain (Homo sapiens, UniProt P00519, T315I).
T2 construct: ABL kinase domain (corresponding to residues 229-512); GST (N, cleaved yes); PreScission cleavage site (N, cleaved yes); made in house; host or cells: High5 insect cells (baculovirus)
T2 sequence (P00519 229-512 T315I): T1 sequence (P00519 229-512) with T87I
Here is the method:
as §1

Assay [3] has as its target T3, wild-type ABL kinase domain (Homo sapiens, UniProt P00519).
T3 construct: ABL kinase domain (corresponding to residues 229-512); GST (N, cleaved yes); PreScission cleavage site (N, cleaved yes); made in house; host or cells: High5 insect cells (baculovirus)
T3 sequence (P00519 229-512): T1 sequence (P00519 229-512)
Here is the method:
as §1

Changes are numbered by the printed parent chain.

As for `CCN(CC)CCNC(=O)c1c(C)[nH]c(/C=C2\C(=O)Nc3ccc(S(=O)(=O)NC)cc32)c1-c1ccc(F)cc1F` [N-[2-(diethylamino)ethyl]-4-(2,4-difluorophenyl)-2-methyl-5-((Z)-{5-[(methylamino)sulfonyl]-2-oxo-1,2-dihydro-3H-indol-3-ylidene}methyl)-1H-pyrrole-3-carboxamide], the figures for the Kd in assay [1], in assay [2] and in assay [3] were 0.2 ± 0.1 µM, 0.02 ± 0.008 µM and 0.33 ± 0.12 µM, respectively.

In general, Kd refers to the concentration at which binding is half-saturated. A high value points to weaker binding.
